According to patent US20250122160A1, “PROTEIN TYROSINE PHOSPHATASE INHIBITORS AND METHODS OF USE THEREOF” (Calico Life Sciences LLC, priority 0001, published 2025):

Assays:
[1] = target: T1, His tagged full-length PTPN1 protein (Homo sapiens, UniProt P18031); assay: Mobility shift assay (MSA) to determine potency of PTPN1 inhibitors; assay type: biochemical; settings: 0.5 nM enzyme, 2 μM substrate
T1 construct: made in house
T1 sequence (P18031 with tags, fused parts or gaps): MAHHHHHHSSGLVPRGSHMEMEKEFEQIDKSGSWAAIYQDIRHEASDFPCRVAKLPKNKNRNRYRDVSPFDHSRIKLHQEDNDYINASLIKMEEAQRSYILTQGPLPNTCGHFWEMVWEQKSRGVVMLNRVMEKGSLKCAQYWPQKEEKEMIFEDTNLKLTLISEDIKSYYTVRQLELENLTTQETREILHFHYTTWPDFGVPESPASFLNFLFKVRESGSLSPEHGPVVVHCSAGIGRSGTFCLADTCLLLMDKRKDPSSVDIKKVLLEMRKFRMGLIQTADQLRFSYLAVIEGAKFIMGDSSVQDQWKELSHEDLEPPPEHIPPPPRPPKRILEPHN
In short: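 Readout is microfluidic mobility shift (ex 488/em 530 nm) of a 2 μM OG488-labelled pTyr insulin-receptor peptide after a 10 min room-temperature reaction, following 10 min enzyme–compound preincubation. Enzyme: 0.5 nM full-length His-tagged PTPN1 in HEPES pH 7.5 buffer. IC50 fitted from % inhibition at 12 concentrations (1:3 steps).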

[2] = target: T2, His tagged PTPN2 (TC45) protein (Homo sapiens, UniProt P17706); assay: Mobility shift assay (MSA) to determine potency of PTPN2 inhibitors; assay type: biochemical; settings: 0.5 nM enzyme, 2 μM substrate
T2 construct: made in house
T2 sequence (P17706 with tags, fused parts or gaps isoform P17706-2): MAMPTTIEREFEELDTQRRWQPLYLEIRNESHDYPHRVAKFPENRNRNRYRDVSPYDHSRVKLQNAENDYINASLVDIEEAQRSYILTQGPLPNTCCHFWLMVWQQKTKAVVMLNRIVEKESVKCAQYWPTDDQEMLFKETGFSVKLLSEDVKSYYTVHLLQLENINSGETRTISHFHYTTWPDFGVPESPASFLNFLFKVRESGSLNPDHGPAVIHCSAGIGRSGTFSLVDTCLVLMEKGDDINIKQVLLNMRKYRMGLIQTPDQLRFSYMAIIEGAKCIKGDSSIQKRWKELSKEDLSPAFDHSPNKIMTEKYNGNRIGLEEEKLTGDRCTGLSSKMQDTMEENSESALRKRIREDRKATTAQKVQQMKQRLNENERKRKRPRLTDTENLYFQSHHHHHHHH
In short: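 His-tagged human PTPN2 (TC45), 0.5 nM, preincubated 10 min at room temperature with compound (12-point, 1:3 dilutions) in HEPES pH 7.5 buffer with EGTA, EDTA, Tween 20 and DTT. Then 2 μM OG488-labelled phospho-insulin-receptor peptide was added for 10 min and quenched. % conversion was read by mobility shift, and IC50 came from % inhibition.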

[3] = system: B16F10 mouse melanoma cells; assay: B16F10 IFNγ-induced cellular growth inhibition assay; assay type: cell-based; settings: B16-F10, with 0.5 ng/ml IFNγ, read-out: B16F10 GI IC50
Procedure: B16F10 mouse melanoma cells (ATCC Cat #CRL-6475, Manassas, VA) were seeded at a density of 500 cells per well in a 384-well clear bottom plate (Corning Cat #3765, Corning, NY) in 25 μL total volume of DMEM+10% FBS (Sigma Cat #D6429 and Sigma Cat #F4135, St. Louis, MO). Cells were allowed to adhere overnight at 37° C.+5% CO2. On the following day, 12.5 μL of mouse IFNγ (RD systems Cat #485-MI/CF, Minneapolis, MN) was added to half of the plate (columns 13-24) at a concentration of 2 ng/ml for a final assay concentration of 0.5 ng/ml of IFNγ. Media only (12.5 μL of DMEM+10% FBS) was added to the remainder of the plate (columns 1-12). Next, compounds resuspended in DMSO (Sigma Cat #D2650) at 100 mM were diluted in semi-log dilutions in DMSO ranging from 100 mM to 0.001 mM and DMSO only controls were included. The compound/DMSO dilutions were further diluted 1:250 in DMEM+10% FBS, and 12.5 μL of these dilutions were added in triplicates to cells of both treatment arms (with and without IFNγ). Final compound concentrations ranged from 100 μM to 0.001 μM with a final DMSO concentration of 0.1%. […] Confluence over time for compound dilutions in the presence and absence of IFNγ was measured. […] At these time points, for each compound the percent growth inhibition at every compound dose level was calculated relative to the “DMSO/with IFNγ” control and used to determine the IC50.

Question: How did the IC50 [1] turn out when `CC(C)(C)O[C@H]1C[C@@H](CCNC2CCc3cc(O)c(N4CC(=O)NS4(=O)=O)c(F)c3C2)C1` (stereo partly drawn) [Compound 234] was run?
Answer: The IC50 was 1 to 10 nM.

Question: What about the IC50 [2] of the same molecule?
Answer: The IC50 was 10 to 100 nM.

Question: And the IC50 [3]?
Answer: Its IC50 is 1000 to 10000 nM.
